Experimental data as given in the NIST ThermoML archive (doi:10.1016/j.jct.2009.06.021).
± gives the expanded uncertainty stated by the source.

What was measured:
[1] = for surface tension liquid-gas: Maximal bubble pressure; for mass density: 101.33 kPa, Liquid, Vibrating tube method
[2] = xn = mol fraction of the nth substance listed; details: for surface tension liquid-gas: Maximal bubble pressure; for mass density: 101 kPa, Liquid, Vibrating tube method

CCCCS(=O)CCCC [dibutyl sulfoxide]
[1], 313.15 K
Details	mass density [kg/m3]	surface tension liquid-gas [mN/m]
–	922.34 ± 4.6	28.5 ± 0.3

CCCCS(=O)CCCC [dibutyl sulfoxide] + ClC(Cl)(Cl)Cl
[2], 313.15 K
Details	mass density [kg/m3]	surface tension liquid-gas [mN/m]
x2 = 0.1074	963.82 ± 0.25	–
x2 = 0.2232	–	28 ± 0.3
x2 = 0.2288	1017.38 ± 0.26	–
x2 = 0.303	1052.44 ± 0.29	–
x2 = 0.4057	1106.17 ± 0.33	–
x2 = 0.4457	–	27.3 ± 0.3
x2 = 0.4984	1157.99 ± 0.38	–
x2 = 0.51	–	27 ± 0.3
x2 = 0.5476	–	26.7 ± 0.3
x2 = 0.601	1222.74 ± 0.44	–
x2 = 0.6539	–	25.9 ± 0.3
x2 = 0.7009	1292.11 ± 0.5	–
x2 = 0.7038	–	25.4 ± 0.3
x2 = 0.7998	–	24.5 ± 0.3
x2 = 0.8019	1370.59 ± 0.57	–
x2 = 0.8962	–	23.5 ± 0.3

CC[S+]([O-])CC [diethyl sulfoxide]
[1]
Details	mass density [kg/m3]	surface tension liquid-gas [mN/m]
298.15 K	1009.51 ± 0.24	34.6 ± 0.3
303.15 K	1005.14 ± 0.24	34.3 ± 0.3
308.15 K	1000.77 ± 0.23	34 ± 0.3
313.15 K	996.4 ± 0.23	33.7 ± 0.3

CC[S+]([O-])CC [diethyl sulfoxide] + ClC(Cl)(Cl)Cl
[2]
Details	mass density, 298.15 K [kg/m3]	mass density, 303.15 K [kg/m3]	mass density, 308.15 K [kg/m3]	mass density, 313.15 K [kg/m3]	surface tension liquid-gas, 298.15 K [mN/m]	surface tension liquid-gas, 303.15 K [mN/m]	surface tension liquid-gas, 308.15 K [mN/m]	surface tension liquid-gas, 313.15 K [mN/m]
x2 = 0.0408	1036.23 ± 0.28	1031.26 ± 0.28	1024.88 ± 0.28	1020.51 ± 0.27	–	–	–	–
x2 = 0.1016	–	–	–	–	35 ± 0.3	34.7 ± 0.3	34.1 ± 0.3	33.6 ± 0.3
x2 = 0.1065	1074.77 ± 0.31	1069.42 ± 0.31	1064.04 ± 0.3	1058.67 ± 0.3	–	–	–	–
x2 = 0.218	–	–	–	–	33.9 ± 0.3	33.4 ± 0.3	32.7 ± 0.3	32.1 ± 0.3
x2 = 0.2249	1142.65 ± 0.36	1137.29 ± 0.36	1131.92 ± 0.36	1126.55 ± 0.35	–	–	–	–
x2 = 0.3172	–	–	–	–	32 ± 0.3	31.5 ± 0.3	30.9 ± 0.3	30.3 ± 0.3
x2 = 0.3231	1198.5 ± 0.41	1192.67 ± 0.4	1186.82 ± 0.4	1180.98 ± 0.39	–	–	–	–
x2 = 0.4093	–	–	–	–	30.3 ± 0.3	29.8 ± 0.3	29.2 ± 0.3	28.6 ± 0.3
x2 = 0.4567	1273.33 ± 0.47	1266.87 ± 0.47	1260.4 ± 0.5	1253.92 ± 0.46	–	–	–	–
x2 = 0.4782	–	–	–	–	29.1 ± 0.3	28.6 ± 0.3	28.1 ± 0.3	27.6 ± 0.3
x2 = 0.5102	–	–	–	–	28.5 ± 0.3	28 ± 0.3	27.6 ± 0.3	27.1 ± 0.3
x2 = 0.6562	–	–	–	–	27 ± 0.3	26.5 ± 0.3	25.9 ± 0.3	25.3 ± 0.3
x2 = 0.7363	1433.49 ± 0.62	1425.5 ± 0.6	1417.48 ± 0.6	1409.44 ± 0.6	–	–	–	–
x2 = 0.7512	–	–	–	–	26.2 ± 0.3	25.7 ± 0.3	25.1 ± 0.3	24.5 ± 0.3
x2 = 0.8701	–	–	–	–	25.3 ± 0.3	24.7 ± 0.3	24.1 ± 0.3	23.5 ± 0.3
x2 = 0.8985	1527.46 ± 0.71	1519.07 ± 0.7	1509.96 ± 0.69	1500.84 ± 0.68	–	–	–	–
x2 = 0.9419	–	–	–	–	24.6 ± 0.3	24 ± 0.3	23.5 ± 0.3	22.9 ± 0.3
x2 = 0.9533	1558.34 ± 0.74	1548.91 ± 0.73	1539.42 ± 0.72	1529.92 ± 0.71	–	–	–	–

C[S+](C)[O-] [dimethyl sulfoxide]
[1]
Details	mass density [kg/m3]	surface tension liquid-gas [mN/m]
298.15 K	1095.35 ± 0.31	42.5 ± 0.4
303.15 K	1090.33 ± 0.3	42 ± 0.4
308.15 K	1085.32 ± 0.3	41.5 ± 0.4
313.15 K	1080.29 ± 0.29	41 ± 0.4

CCCS(=O)CCC [dipropyl sulfoxide]
[1]
Details	mass density [kg/m3]	surface tension liquid-gas [mN/m]
298.15 K	957.77 ± 0.23	32.6 ± 0.3
303.15 K	953.67 ± 0.23	32 ± 0.3
308.15 K	949.58 ± 0.23	31.5 ± 0.3
313.15 K	945.5 ± 0.2	31 ± 0.3

CCCS(=O)CCC [dipropyl sulfoxide] + ClC(Cl)(Cl)Cl
[2]
Details	mass density, 298.15 K [kg/m3]	mass density, 303.15 K [kg/m3]	mass density, 308.15 K [kg/m3]	mass density, 313.15 K [kg/m3]	surface tension liquid-gas, 298.15 K [mN/m]	surface tension liquid-gas, 303.15 K [mN/m]	surface tension liquid-gas, 308.15 K [mN/m]	surface tension liquid-gas, 313.15 K [mN/m]
x2 = 0.0837	997.89 ± 0.25	993.53 ± 0.25	989.15 ± 0.25	984.79 ± 0.25	–	–	–	–
x2 = 0.2049	–	–	–	–	31.2 ± 0.3	30.8 ± 0.3	30.4 ± 0.3	29.9 ± 0.3
x2 = 0.2132	1061.92 ± 0.3	1057.03 ± 0.29	1052.27 ± 0.29	1047.44 ± 0.28	–	–	–	–
x2 = 0.2784	1097.07 ± 0.33	1091.98 ± 0.32	1086.9 ± 0.3	1081.81 ± 0.31	–	–	–	–
x2 = 0.2998	–	–	–	–	30.8 ± 0.3	30.4 ± 0.3	29.9 ± 0.3	29.5 ± 0.3
x2 = 0.4165	–	–	–	–	30.4 ± 0.3	29.8 ± 0.3	29.3 ± 0.3	28.7 ± 0.3
x2 = 0.4545	1197.46 ± 0.41	1191.59 ± 0.4	1185.73 ± 0.4	1179.84 ± 0.39	–	–	–	–
x2 = 0.5304	–	–	–	–	29.6 ± 0.3	28.9 ± 0.3	28.2 ± 0.3	27.7 ± 0.3
x2 = 0.6109	–	–	–	–	28.8 ± 0.3	28.1 ± 0.3	27.5 ± 0.3	26.9 ± 0.3
x2 = 0.6285	1305.93 ± 0.5	1299.22 ± 0.5	1292.38 ± 0.49	1285.53 ± 0.49	–	–	–	–
x2 = 0.704	1356.22 ± 0.55	1348.94 ± 0.55	1341.67 ± 0.54	1334.38 ± 0.53	–	–	–	–
x2 = 0.7078	–	–	–	–	27.6 ± 0.3	26.9 ± 0.3	26.2 ± 0.3	25.7 ± 0.3
x2 = 0.8055	–	–	–	–	26.3 ± 0.3	25.7 ± 0.3	25.1 ± 0.3	24.5 ± 0.3
x2 = 0.8468	1461.39 ± 0.65	1453.03 ± 0.64	1444.65 ± 0.63	1436.24 ± 0.63	–	–	–	–
x2 = 0.8547	1466.95 ± 0.66	1458.55 ± 0.65	1450.15 ± 0.64	1441.7 ± 0.6	–	–	–	–
x2 = 0.8995	–	–	–	–	25.3 ± 0.3	24.7 ± 0.3	24.1 ± 0.3	23.5 ± 0.3
x2 = 0.9178	1516.99 ± 0.71	1508.02 ± 0.7	1499.04 ± 0.69	1490.03 ± 0.68	–	–	–	–
x2 = 0.9588	1550.62 ± 0.74	1541.21 ± 0.73	1531.83 ± 0.72	1522.41 ± 0.71	–	–	–	–

ClC(Cl)(Cl)Cl [tetrachloromethane]
[1]
Details	mass density [kg/m3]	surface tension liquid-gas [mN/m]
298.15 K	1584.36 ± 0.76	24.2 ± 0.3
303.15 K	1574.61 ± 0.75	23.7 ± 0.3
308.15 K	1564.83 ± 0.74	23 ± 0.3
313.15 K	1554.96 ± 0.73	22.3 ± 0.3
